Reference: a melting point compilation (Tetko et al.; mined from patent text by program, amines drawn as free bases though some values may be those of a salt)

SMILES	melting point [°C]
COc1ccc(OC)c2nc(Cl)c(CCCl)cc12	108 to 110
CC(=O)NCc1ccc(CN2CCN(c3ccc(N)cc3)CC2)cc1	198 to 200
O=C(C1=C(O)C(=O)N(C2CC2)C1)c1ccc(Cc2ccc(F)cc2)o1	158 to 159
CCOC(=O)CN(NC(=O)OC(C)(C)C)C(=O)OCc1ccccc1	117 to 119
COc1cc2ncnc(N3CCC(C(C)(O)CN4CCCS4(=O)=O)CC3)c2cc1OC (centres undefined)	173 to 174
CC(=O)c1cc(S)c(Cl)cc1CC(=O)OCF	125 to 126
CCCN(CCC)C(=O)C(CCC(N)=O)NC(=O)C=Cc1ccco1 (centres undefined)	152 to 153
Cc1cccc(-c2cc(Cl)nc3ccc(C(=O)c4ccc(Cl)cc4)cc23)c1	199
Nc1ccc(/C=C/c2c(F)cccc2F)cc1	74 to 75
CC(C)CNc1cccnc1N1CCN(C(=O)c2ccc(C(=O)NC(C)C)cn2)CC1	132 to 134
CC(C(=O)O)c1ccc(C(=O)c2ccc(Br)o2)cc1 (centres undefined)	108 to 110
CCC1(CCCBr)C(=O)NC(=O)NC1=O	138 to 140
CC(=O)C1(O)CCC2C3C=C(C)C4=CC(=O)CCC4(CO)C3CCC21C (centres undefined)	184 to 186
COCc1nnc2ccc(-c3cccc(C(F)(F)F)c3)nn12	149 to 150
COC(=O)CC[C@H](NC(=O)c1ccc(OCc2ccccc2)cc1)C(=O)OC	108 to 109
O=S(=O)(Cl)c1ccc(Oc2ccc(F)cc2)cc1	76
CS(=O)(=O)c1ccc(/C(=C\C2CCCCC2)C(=O)O)cc1	195 to 197
N#Cc1c(N2CCc3ccccc3CC2)[nH]c(=O)[nH]c1=O	183 to 186
O=C(O)c1ccc(S(=O)(=O)Oc2ccc(CCc3c(Cc4ccccc4)sc4ccccc34)cc2)cc1O	57 to 59
O=C(O)c1cc2cc(Cl)ccc2nc1N[C@@H](CC1CCCCC1)C(=O)O	160 to 168
CCOC(=O)c1c(Nc2ccc(F)cc2[N+](=O)[O-])nn(C)c1C	174
COC(=O)CNC(=O)c1[nH]c(C)c(-c2nc3ccc(C(=O)c4ccccc4)cc3[nH]2)c1C	149 to 151
CC(=O)NN1CCN(CCc2c[nH]c3ccccc23)CC1	183 to 186
CN(C)CC1CCc2cc(NC(=O)c3ccc(-c4ccc(Cl)c(Cl)c4)cc3)ccc2C1 (centres undefined)	143 to 145
CCCCCC(O)CCCOC(=O)c1ccccc1 (centres undefined)	90 to 93
COc1ccc(CC(=O)NC(NC(=NC#N)Nc2cccc3ncccc23)C(C)(C)C)cc1OC (centres undefined)	128 to 129

SMILES	melting point [°C]
O=C(Nc1ccccc1S(=O)(=O)F)NC1CCCCC1	177
COc1ccc(CCN2CCCC(CO)C2)cc1OC (centres undefined)	87.5 to 89
O=c1[nH]c2c(c(O)c1[N+](=O)[O-])CCCCC2	> 264
C=CCN(CCC)C1COc2cccc(O)c2C1 (centres undefined)	78 to 80
CCC(Oc1c(Cl)cccc1Cl)C(=O)OC1CC(O)C=C2C=CC(C)C(CCC3CC(O)CC(=O)O3)C21 (mixture of isomers)	107 to 109
CC/C=C\C#CCCCCCCCCCCO	6 to 7
COCC(CCO)(OC)c1cccc(OCc2ccc3ccccc3c2)c1 (centres undefined)	64 to 65
CN1CCN(c2cc3ncc(C#N)c(Nc4ccc(F)c(Cl)c4)c3cc2[N+](=O)[O-])CC1	240 to 246
Nc1cc2c(cc1CCN1CCN(c3cccc(C(F)(F)F)c3)CC1)OCO2	88
Cc1cc(CN2CC(=O)N(c3cnn(Cc4c(C)noc4C)c3)C2=O)n(C)n1	145 to 146
CN1C(=O)COc2c(C(=O)O)cc([N+](=O)[O-])cc21	256 to 259
COc1ccc(-c2cc(N3CCCCC3)c(C#N)c3c2-c2ccccc2C3)cc1	202 to 204
N#Cc1ccccc1NC1CCN(Cc2ccccc2)CC1	104 to 105
Cc1cc(Cl)c(N2C(=O)Cc3cc(C)ccc32)c(Cl)c1	153 to 154
CCc1cc(C(=O)O)c(O)cc1C	152 to 154
O=C(Oc1ccc([N+](=O)[O-])cc1)OC1CCN(C(=O)Oc2ccc(Oc3ccccc3)cc2)CC1	108 to 109
Cc1nn(-c2cncc(F)c2)cc1I	87 to 88
CNC(=O)N(N=C(C)C)C(=O)c1ccc(Cl)cc1	119 to 123
CC12CCC(C1)C(C)(C)C2(CCO)SN=O (centres undefined)	81 to 85
Cn1c(COc2ccc(CC3SC(=O)NC3=O)cc2)nc2cccnc21 (centres undefined)	223 to 225
O=C1C(=O)c2ccccc2C2=C1SCC1(CCN(CC(O)COCc3ccco3)CC1)O2 (centres undefined)	143 to 145
CCNc1ccc(-c2cc3ccccc3o2)cc1	126 to 128
O=C(NC(CCCl)c1ccccc1Br)c1c(F)cccc1F (centres undefined)	183 to 185
Cc1sc(-c2ccccc2)nc1COc1cc(CO)on1	84 to 85
Cc1cccc(COCc2cccc(OCc3ccc4ccccc4n3)c2)c1C(=O)O	39 to 65
CC(=O)Cc1ccc(CC2SC(=O)NC2=O)cc1 (centres undefined)	133 to 135

SMILES	melting point [°C]
CC(C)(C)OC(=O)N1CCC(c2cn(-c3ccc(F)cc3)c3ccc(C#N)cc23)CC1	155
O=C(Nc1ccc(C(F)(F)F)cc1)C1=NN(c2ccc(Cl)nn2)C(c2ccc(F)cc2)C1 (centres undefined)	200 to 202
COc1cc([N+](=O)[O-])ccc1OCC(=O)C1CC1	112 to 113
CCCSC1=NSc2cc(C)cnc2N1Cc1ccc(-c2ccccc2C(=O)O)cc1	237 to 239
CC(C)(CO)CCCCCCCCCCCC(C)(C)CO	45 to 47
CCOC(=O)c1c(SC)nc(-c2ccc(F)cc2)n(-c2ccc(SC)cc2)c1=O	166 to 169
CS(=O)c1cnc2ccsc2c1O (centres undefined)	271 to 273
COc1cc2c(cc1Cl)C(C)(C)C(CC=O)C2=O (racemic)	102 to 103
CCOC(=O)c1c(C)cc2cnc(C)nc2c1C	84 to 86
CCCc1nc2c(N)nc3cc(OCCN(CCOc4ccc5c(c4)nc(N)c4nc(CCC)sc45)C(N)=O)ccc3c2s1	213 to 216
Cc1ccc(S(=O)(=O)O[C@@H]2C[C@@H](CCl)N(S(=O)(=O)c3ccc(C)cc3)C2)cc1	145 to 146
CC(=O)c1cc2c(C(C)=O)c(OCC(O)CNC(C)(C)C)ccc2o1 (centres undefined)	122
C=C(C)C(=O)OCCCOc1ccc2cc(OC(=O)C(=C)C)ccc2c1	68
O=C(Nc1ccc(Cl)c(Cl)c1)NS(=O)(=O)c1ccccc1	194 to 195
COCCOCONC(=O)c1nc(-c2ccc(Cl)c(OC)c2F)cc(N)c1Cl	126 to 128
COc1nc(OC)c(C(C)C)c(C(C#N)c2cc(C)cc(Br)c2)n1 (centres undefined)	123 to 124
O=C(O)CS(=O)c1ccc2c(-c3ccccc3F)noc2c1 (centres undefined)	165 to 166
O=C1CC2(CN1)CC(=O)c1cc(Cl)ccc12 (centres undefined)	220 to 222
CC(C)n1nc(-c2ncc(N)nc2-c2ccccc2Br)ccc1=O	189 to 191
Cc1cc(Cl)ccc1NS(=O)(=O)c1cc(S(=O)(=O)Nc2ccc(Cl)cc2C)c2cc(O)ccc2c1	140 to 142
CCOC(=O)c1cc(OC)ccc1Nc1ccc(O)cc1	134 to 136
OC(CBr)C(O)C(O)C(O)CBr (centres undefined)	183 to 185
COC(=O)C1=C(C)NC(C)=C(C(=O)OCCc2cc(C)[nH]c2C)C1c1cccc([N+](=O)[O-])c1 (centres undefined)	156 to 160
Nc1nc(-c2ccccc2)c2cc(Cl)cc(Cl)c2n1	213
CC(C)(C)OC(=O)CNC(=O)C(=O)c1cn(Cc2ccccc2)c2ccc(-c3ccc(OC(F)(F)F)cc3)cc12	167 to 168
COc1cccc(CCN2C(=O)c3c(F)c(F)c(F)c(F)c3C2(O)c2ccc(F)cc2)c1 (centres undefined)	161

SMILES	melting point [°C]
Cc1nc(-c2ccc(C(=O)O)s2)no1	218 to 220
O=C1c2cccc3cccc(c23)C(=O)N1CCI	222 to 224
COc1cc(CCNC(=O)C(F)(F)F)ccc1N	80 to 81
CCOC(CBr)(OCC)c1csc(NC(=N)N)n1	157 to 158
C#CCOC1(Nc2cccc(OCC3CO3)c2)N=CC(Br)=CN1 (centres undefined)	173
CC(=O)C(C)(C)CS(=O)(=O)c1ccccc1	56 to 58
CN1CCC(O)(c2ccccc2Cc2ccccc2)C1 (centres undefined)	108 to 109
COc1cc2nc(N3CCN(C(=O)C=Cc4ccc(Br)cc4)CC3)nc(N)c2cc1OC	266 to 268
CCn1c(=O)c2[nH]c(/C=C/c3cccc([N+](=O)[O-])c3)nc2n(CC)c1=O	> 270
c1ccc(CN2CCC(n3cnnc3-c3ccccc3)CC2)cc1	111 to 114
CCCCOC1C=CC(=O)N1S(=O)(=O)c1ccccc1 (centres undefined)	66 to 67
O=C(O)c1cscc1Br	157 to 158
O=C1NC(Cc2cccs2)C(=O)NC1Cc1ccc(OCc2ccccc2)cn1 (centres undefined)	201 to 203
Cc1onc(-c2ccccc2)c1-c1ccc(S(=O)(=O)NC(=O)CC(C)(C)S)cc1	138 to 140
CCCCCCC(C)(C)c1cc(O)cc(O)c1	93 to 95
COC(=O)c1c(C(=O)OC)c(C(C)C)n(CCC2CC(O)CC(=O)O2)c1-c1ccc(F)cc1 (centres undefined)	167 to 170
COC(=O)c1cc(-c2ccccc2)c(=O)n2ncc3ccccc3c12	174 to 175
Cc1noc(C)c1S(=O)(=O)N(C)c1ccc(Cl)cc1[N+](=O)[O-]	99 to 101
O=C1N[C@H](Cc2ccc(C(F)(F)F)o2)[C@H](c2ccc(F)cc2)O1 (racemic)	177 to 179
CN(C(=O)Cl)c1ccccc1C(F)(F)F	44 to 46
CC(CO)C1CCC2=C3C=CC4C(C)(C)C(OC(=O)c5ccccc5)CCC4(C)C3CCC21C (centres undefined)	218 to 220
CCn1c(C(C#N)c2cc(C)cc(C#N)c2)c(C(C)C)c(=O)n(COC)c1=O (centres undefined)	202 to 205
O=c1c2ccccc2cc2n1CCS2(=O)=O	208 to 211
O=C(O)COc1ccc(SCc2ccc(OCc3cc(Cl)ccc3Cl)cc2)c2c1CCCO2	98 to 100
CSc1ncc(C#N)c(NC2CCCC2)n1	119 to 122
Fc1cccc2c1CNC2	46.5 to 48.5
